Test results as given in the supplement of paper PMC10307832.

What was measured:
Experiment in all cases: relative viability (nuclei count vs DMSO), 5 days (fraction); higher = more cells survive
Vorinostat + OSI-027 = compound: O=C(CCCCCCC(=O)Nc1ccccc1)NO [Vorinostat] + COc1cccc2cc(-c3nc([C@H]4CC[C@H](C(=O)O)CC4)n4ncnc(N)c34)[nH]c12 [OSI-027] (partner 0.5 µM)
Method in brief: (§1)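 After 5 days of treatment, lung cancer cells in 1536-well plates were fixed and stained in a single step (final 0.05% Triton X-100, 1% formaldehyde, 1 ug/ml Hoechst) and their nuclei counted on 4× images. Treatment had been applied by pin tool the day after seeding as one drug alone or as a fixed anchor-drug dose with five library-drug doses (not always all listed) in √10 steps. Relative viability is the nuclei count of treated wells divided by that of vehicle wells, and values are medians of duplicate plates.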

Vorinostat + Lapatinib = compound: O=C(CCCCCCC(=O)Nc1ccccc1)NO [Vorinostat] + CS(=O)(=O)CCNCc1ccc(-c2ccc3ncnc(Nc4ccc(OCc5cccc(F)c5)c(Cl)c4)c3c2)o1 [Lapatinib] (partner 2 µM)
Method in brief: as §1

Vorinostat + Linsitinib = compound: O=C(CCCCCCC(=O)Nc1ccccc1)NO [Vorinostat] + C[C@]1(O)C[C@@H](c2nc(-c3ccc4ccc(-c5ccccc5)nc4c3)c3c(N)nccn32)C1 [Linsitinib] (partner 1 µM)
Method in brief: as §1

Vorinostat + Dasatinib = compound: O=C(CCCCCCC(=O)Nc1ccccc1)NO [Vorinostat] + Cc1nc(Nc2ncc(C(=O)Nc3c(C)cccc3Cl)s2)cc(N2CCN(CCO)CC2)n1 [Dasatinib] (partner 0.075 µM)
Method in brief: as §1

Cell Line	relative viability (Vorinostat + OSI-027; first compound 0.253 µM)	relative viability (Vorinostat + OSI-027; first compound 0.8 µM)	relative viability (Vorinostat + OSI-027; first compound 2.53 µM)	relative viability (Vorinostat + OSI-027; first compound 8 µM)	relative viability (Vorinostat + Lapatinib; first compound 0.253 µM)	relative viability (Vorinostat + Lapatinib; first compound 0.8 µM)	relative viability (Vorinostat + Lapatinib; first compound 2.53 µM)	relative viability (Vorinostat + Lapatinib; first compound 8 µM)	relative viability (Vorinostat + Linsitinib; first compound 0.253 µM)	relative viability (Vorinostat + Linsitinib; first compound 0.8 µM)	relative viability (Vorinostat + Linsitinib; first compound 2.53 µM)	relative viability (Vorinostat + Linsitinib; first compound 8 µM)	relative viability (Vorinostat + Dasatinib; first compound 0.253 µM)	relative viability (Vorinostat + Dasatinib; first compound 0.8 µM)	relative viability (Vorinostat + Dasatinib; first compound 2.53 µM)	relative viability (Vorinostat + Dasatinib; first compound 8 µM)
CAL-12T	0.814	0.746	0.292	0.0987	0.682	0.649	0.438	0.111	0.923	0.759	0.563	0.147	0.481	0.471	0.269	0.0806
NCI-H2009	0.793	0.795	0.254	0.0901	1.06	0.503	0.329	0.133	1.27	1.07	0.707	0.177	0.466	0.454	0.168	0.082
EMC-BAC-2	0.356	0.316	0.173	0.146	1.04	0.871	0.405	0.149	0.977	0.866	0.47	0.134	0.311	0.204	0.169	0.108
ABC-1	0.491	0.352	0.159	0.102	1.14	1.12	1.13	0.27	1	0.505	0.331	0.106	0.531	0.41	0.221	0.131
LK-2	0.196	0.169	0.117	0.103	1.19	0.673	0.209	0.108	0.58	0.328	0.143	0.0894	0.36	0.188	0.114	0.123
LC-2-ad	0.81	0.508	0.206	0.159	0.924	0.67	0.253	0.0672	0.868	0.606	0.13	0.136	0.585	0.235	0.127	0.124
ChaGo-K-1	0.553	0.484	0.319	0.176	–	–	–	–	–	–	–	–	0.656	0.568	0.444	0.246
201T	0.837	0.756	0.322	0.118	1.05	0.954	0.929	0.567	1.04	0.932	0.825	0.363	0.578	0.503	0.381	0.221
NCI-H1563	0.787	0.692	0.577	0.549	1.01	0.796	0.403	0.564	1.19	1.03	0.749	0.525	0.411	0.458	0.448	0.385
RERF-LC-KJ	0.56	0.52	0.238	0.256	0.938	0.781	0.733	0.227	0.983	0.855	0.694	0.168	0.817	0.543	0.212	0.24
NCI-H2342	0.607	0.649	0.524	0.386	–	–	–	–	–	–	–	–	0.304	0.315	0.274	0.28
LOU-NH91	0.828	0.62	0.516	0.303	0.843	0.799	0.688	0.346	1.1	0.901	0.547	0.338	0.661	0.577	0.544	0.361
NCI-H1944	0.413	0.287	0.226	0.165	0.77	0.572	0.43	0.236	1.21	0.948	0.697	0.207	0.204	0.184	0.178	0.174
HCC-366	0.979	0.432	0.146	0.0279	1.16	0.741	0.0772	0.0322	0.637	0.545	0.0527	0.0206	0.805	0.426	0.102	0.0346
SW 1573	1.1	0.633	0.183	0.051	1.17	1.07	0.824	0.133	0.986	0.978	0.421	0.13	0.593	0.789	0.112	0.0513
SK-MES-1	0.72	0.664	0.199	0.149	0.504	0.438	0.433	0.187	1.09	1.02	0.495	0.21	0.566	0.657	0.197	0.148
NCI-H1993	0.53	0.63	0.568	0.525	0.959	1	0.579	0.399	0.836	0.861	0.575	0.614	0.655	0.626	0.544	0.41
NCI-H1703	–	–	–	–	1.64	1.49	1.02	0.247	1.14	0.846	0.953	0.206	–	–	–	–
HARA	0.64	0.213	0.155	0.0573	0.849	0.682	0.237	0.112	1.13	0.948	0.254	0.101	0.311	0.238	0.18	0.0565
COR-L23	0.842	0.396	0.151	0.0835	1.07	0.818	0.139	0.0646	0.899	0.468	0.0916	0.0663	0.501	0.291	0.0778	0.0572
NCI-H1355	0.442	0.309	0.228	0.164	1.02	0.792	0.693	0.157	0.917	0.707	0.451	0.139	0.825	0.503	0.298	0.169
NCI-H1437	0.934	0.467	0.197	0.146	0.846	0.476	0.153	0.0924	1.19	0.789	0.138	0.0938	0.459	0.183	0.152	0.137
